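Each compound was tested at five concentrations against cells in 96-well plates for 48 hours. Abbreviation: GI50, concentration required for 50% inhibition of growth.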 Activity calls are given as the source filed them. Cut-off read from the data, not from the text of the source: active = GI50 up to about 1.1 µM and inactive = higher.
What was measured:
Assay in all cases: growth of human tumour cells (NCI), 48 h
A498 = test system: A498
LXFL 529 = test system: LXFL 529
RXF 631 = test system: RXF 631
SNB-78 = test system: SNB-78
Hs-578T = test system: Hs-578T
MDA-MB-435 = test system: MDA-MB-435
MDA-N = test system: MDA-N
786-0 = test system: 786-0
BT-549 = test system: BT-549

SMILES | GI50 (A498) | GI50 (LXFL 529) | GI50 (SNB-78) | GI50 (Hs-578T) | GI50 (MDA-MB-435) | GI50 (MDA-N) | further results
Cc1cccc(NC(N)=S)c1 | > 100 µM (inactive) | > 100 µM (inactive) | > 100 µM (inactive) | – | – | – | GI50 (RXF 631): > 100 µM (inactive)
C#CCNC(=O)CCC(N)C(=O)O (configuration not stated) | > 100 µM (inactive) | – | > 100 µM (inactive) | – | – | – | –
COc1c2c(c3ccccc3c1O)C1C=CC2C1 (configuration not stated) | – | 3.82 µM (inactive) | – | – | – | – | –
COC(=O)C1=C(C)N2CCSC2(C)C(C(=O)OC)C1c1cccc(Cl)c1 (configuration not stated) | – | 20 µM (inactive) | – | – | – | – | –
O=C(O)C(Br)Cc1ccc2c(c1)OCO2 (configuration not stated) | 47.2 µM (inactive) | > 100 µM (inactive) | > 100 µM (inactive) | – | – | – | –
Oc1cc2cc(O)nc(O)c2c(O)n1 | > 100 µM (inactive) | > 100 µM (inactive) | > 100 µM (inactive) | – | – | – | GI50 (RXF 631): > 100 µM (inactive)
COP(=O)(OC)C(Cc1c[nH]c2ccccc12)NC(=O)OCc1ccccc1 (configuration not stated) | > 100 µM (inactive) | – | – | > 100 µM (inactive) | > 100 µM (inactive) | > 100 µM (inactive) | –
COc1cc(CNc2nc3c(NC(C)=O)cc(C(F)(F)F)cc3nc2-c2ccccc2)cc(OC)c1OC | – | > 100 µM (inactive) | – | – | – | – | –
Cc1cc(O)nc(NN2C(Cl)C(=O)C2c2ccco2)n1 (configuration not stated) | – | 29.3 µM (inactive) | 25.7 µM (inactive) | – | – | – | –
CC1=Nc2nc(Cl)cn2C(=O)C1(Cl)Cl | > 10 µM (inactive) | – | – | > 10 µM (inactive) | > 10 µM (inactive) | > 10 µM (inactive) | –
C/C(N)=N/OCc1nc(C)no1 | – | – | – | > 100 µM (inactive) | > 100 µM (inactive) | > 100 µM (inactive) | GI50 (786-0): > 100 µM (inactive); GI50 (BT-549): > 100 µM (inactive)
COc1ccc([C@@H]2ON(C)[C@H]3CN(C)C(=O)[C@@H]23)cc1 | – | – | – | > 100 µM (inactive) | – | > 100 µM (inactive) | –
CC12CCC(C(=O)OC1=O)C(C)(C)O2 (configuration not stated) | – | – | – | > 100 µM (inactive) | > 100 µM (inactive) | > 100 µM (inactive) | GI50 (BT-549): > 100 µM (inactive)
CC1CC2C3CCC4=CC(=O)C=CC4(C)C3(F)C(O)CC2(C)C1(O)C(=O)COP(=O)(O)O (configuration not stated) | > 100 µM (inactive) | > 100 µM (inactive) | > 100 µM (inactive) | > 100 µM (inactive) | > 100 µM (inactive) | 8.18 µM (inactive) | GI50 (BT-549): > 100 µM (inactive)
CC1[C@@]2(O[C@@H]3C=C4C5CCC6Cc7nc8c(nc7C[C@@]6(C)C5C[C@H](O)[C@@]4(C)[C@]13O)CC1CCc3c(cc4c5c3C(O)C[C@H]5[C@@H](C)C3(O4)OC(C)(C)CC3O)[C@]1(C)C8)O[C@@](C)(CO)C[C@@H]2O (some centres not stated) | 0.129 µM (active) | – | 0.183 µM (active) | – | – | – | –
Oc1[nH]c(Nc2cccc(Br)c2)nc2ncnc1-2 | – | – | – | 55.3 µM (inactive) | 93.5 µM (inactive) | > 100 µM (inactive) | GI50 (786-0): > 100 µM (inactive); GI50 (BT-549): 82.8 µM (inactive)
Nc1ccn(C2OC(CO)C(O)C2O)c(=O)c1 (configuration not stated) | – | – | > 625 µM (inactive) | – | – | – | –
